Source: the supplement of paper PMC10627819

What was measured:
B. subtilis 168 [1] = assay: fitness (endpoint OD595 vs no drug) (fraction); higher = more growth
In short: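 Plates with 384 wells were inoculated at OD595 0.01 using 30 µl of TSB, LB Lennox or CY, or 55 µl for S. pneumoniae. Incubation was at 37 °C, with OD595 measured every 30 min for 14 h. Fitness is the stationary-phase transition optical density over the robust mean of no-drug control wells, after first-reading background subtraction; it is capped at 1.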

B. subtilis 168 [2] = assay: Bliss interaction score (quartile over a dose matrix) (fitness difference); higher = more antagonism (negative = synergy)
In short: (§1)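 The Bliss score takes observed fitness and subtracts the expected fitness, calculated as a product of single-drug fitness values. Those single-drug values were inferred from the combination data. Fitness is OD595 at entry into stationary phase divided by the plate's robust no-drug mean, capped at 1, and the score is summarised by quartiles across technical, biological and donor/recipient replicates.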

S. aureus DSM 20231 = assay: as above
In short: as §1

S. aureus Newman = assay: as above
In short: as §1

S. pneumoniae D39V = assay: as above
In short: as §1
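Throughout, for Bliss interaction score (quartile over a dose matrix): first quartile when negative (synergy) and third quartile when positive (antagonism).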

C[C@H]1c2cccc(O)c2C(=O)C2=C(O)[C@]3(O)C(=O)C(C(N)=O)=C(O)[C@@H](N(C)C)[C@@H]3[C@@H](O)[C@@H]21 [Doxycycline] + COc1cc(Cc2cnc(N)nc2N)cc(OC)c1OC [Trimethoprim]
fitness, B. subtilis 168 [1], one replicate
Conditions | partner 0.1 µg/mL | partner 0.2 µg/mL | partner 0.4 µg/mL | partner 1 µg/mL | partner 2 µg/mL
first compound 0.02 µg/mL | 0.84 | 0.754 | 0.616 | 0.346 | 0.259
first compound 0.04 µg/mL | 0.683 | 0.51 | 0.391 | 0.234 | 0.146
first compound 0.08 µg/mL | 0.362 | 0.222 | 0.156 | 0.0631 | 0.0715

fitness, B. subtilis 168 [1]
Conditions | first compound 0.02 µg/mL | first compound 0.04 µg/mL | first compound 0.08 µg/mL
partner 0.125 µg/mL | 0.695 | 0.659 | 0.52
partner 0.25 µg/mL | – | 0.644 | 0.448
partner 0.5 µg/mL | – | 0.412 | 0.262

Conditions | Bliss interaction score
B. subtilis 168 [2] | 0.0804
S. aureus DSM 20231 | 0.108
S. aureus Newman | 0.028
S. pneumoniae D39V | -0.108

CO/N=C(\C(=O)N[C@@H]1C(=O)N2C(C(=O)O)=C(COC(N)=O)CS[C@H]12)c1ccco1 [Cefuroxime] + CO[C@@H]1[C@@H](OC(N)=O)[C@@H](O)[C@H](Oc2ccc3c(O)c(NC(=O)c4ccc(O)c(CC=C(C)C)c4)c(=O)oc3c2C)OC1(C)C [Novobiocin]
B. subtilis 168 [1], one replicate
Conditions | fitness
first compound 0.04875 µg/mL, partner 0.0125 µg/mL | ≥ 1
first compound 0.04875 µg/mL, partner 0.025 µg/mL | 0.997
first compound 0.04875 µg/mL, partner 0.1 µg/mL | 0.563
first compound 0.04875 µg/mL, partner 0.2 µg/mL | 0.528
first compound 0.0975 µg/mL, partner 0.0125 µg/mL | 0.824
first compound 0.0975 µg/mL, partner 0.025 µg/mL | 0.893
first compound 0.0975 µg/mL, partner 0.1 µg/mL | 0.483
first compound 0.0975 µg/mL, partner 0.2 µg/mL | 0.429
first compound 0.195 µg/mL, partner 0.0125 µg/mL | 0.756
first compound 0.195 µg/mL, partner 0.025 µg/mL | 0.76
first compound 0.195 µg/mL, partner 0.1 µg/mL | 0.36
first compound 0.195 µg/mL, partner 0.125 µg/mL | 0.133
first compound 0.195 µg/mL, partner 0.2 µg/mL | 0.335
first compound 0.195 µg/mL, partner 0.25 µg/mL | 0.108
first compound 0.195 µg/mL, partner 0.5 µg/mL | 0.017
first compound 0.39 µg/mL, partner 0.125 µg/mL | 0.116
first compound 0.39 µg/mL, partner 0.25 µg/mL | 0.0783
first compound 0.39 µg/mL, partner 0.5 µg/mL | 0
first compound 0.78 µg/mL, partner 0.125 µg/mL | 0.0821
first compound 0.78 µg/mL, partner 0.25 µg/mL | 0.0334
first compound 0.78 µg/mL, partner 0.5 µg/mL | 0.0061
first compound 1.562 µg/mL, partner 0.0125 µg/mL | 0.318
first compound 1.562 µg/mL, partner 0.025 µg/mL | 0.274
first compound 1.562 µg/mL, partner 0.05 µg/mL | 0.263
first compound 3.125 µg/mL, partner 0.0125 µg/mL | 0.264
first compound 3.125 µg/mL, partner 0.025 µg/mL | 0.23
first compound 3.125 µg/mL, partner 0.05 µg/mL | 0.189
first compound 6.25 µg/mL, partner 0.0125 µg/mL | 0.249
first compound 6.25 µg/mL, partner 0.025 µg/mL | 0.178
first compound 6.25 µg/mL, partner 0.05 µg/mL | 0.159

B. subtilis 168 [1], partner 0.05 µg/mL
Conditions | fitness
first compound 0.0975 µg/mL | 0.665
first compound 0.195 µg/mL | 0.555

Conditions | Bliss interaction score
B. subtilis 168 [2] | -0.0729
S. aureus DSM 20231 | 0.119
S. aureus Newman | -0.131
S. pneumoniae D39V | 0.0773

CO/N=C(\C(=O)N[C@@H]1C(=O)N2C(C(=O)O)=C(COC(N)=O)CS[C@H]12)c1ccco1 [Cefuroxime] + CCC(C)C1C(=O)NC(=C)C(=O)NC(C(=O)NC(CSCC(C(=O)N1)NC(=O)/C(=C/C)/NC(=O)C(C(C)CC)N)C(=O)NC2C(SCC(NC(=O)CNC(=O)C3CCCN3C2=O)C(=O)NC(CCCCN)C(=O)NC4C(SCC(NC(=O)CNC(=O)C(NC(=O)C(NC(=O)C(NC(=O)CNC4=O)C)CC(C)C)CCSC)C(=O)NC(CC(=O)N)C(=O)NC(CCSC)C(=O)NC(CCCCN)C(=O)NC5C(SCC6C(=O)NC(C(=O)NC(CSC(C(C(=O)N6)NC(=O)C(NC5=O)C)C)C(=O)NC(CO)C(=O)NC(C(C)CC)C(=O)NC(CC7=CN=CN7)C(=O)NC(C(C)C)C(=O)NC(=C)C(=O)NC(CCCCN)C(=O)O)CC8=CN=CN8)C)C)C)CC(C)C [Nisin]
B. subtilis 168 [1], one replicate, main component drawn
Conditions | fitness
first compound 0.04875 µg/mL, partner 0.5 µg/mL | 0.608
first compound 0.04875 µg/mL, partner 1 µg/mL | 0.529
first compound 0.04875 µg/mL, partner 2 µg/mL | 0.417
first compound 0.04875 µg/mL, partner 4 µg/mL | 0.0351
first compound 0.04875 µg/mL, partner 8 µg/mL | 0.0258
first compound 0.04875 µg/mL, partner 16 µg/mL | 0.0482
first compound 0.0975 µg/mL, partner 0.5 µg/mL | 0.471
first compound 0.0975 µg/mL, partner 1 µg/mL | 0.427
first compound 0.0975 µg/mL, partner 2 µg/mL | 0.261
first compound 0.0975 µg/mL, partner 4 µg/mL | 0.032
first compound 0.0975 µg/mL, partner 8 µg/mL | 0.0195
first compound 0.0975 µg/mL, partner 16 µg/mL | 0.02
first compound 0.195 µg/mL, partner 0.5 µg/mL | 0.385
first compound 0.195 µg/mL, partner 1 µg/mL | 0.382
first compound 0.195 µg/mL, partner 1.25 µg/mL | 0.173
first compound 0.195 µg/mL, partner 1.6 µg/mL | 0.0755
first compound 0.195 µg/mL, partner 2 µg/mL | 0.278
first compound 0.195 µg/mL, partner 2.5 µg/mL | 0.0381
first compound 0.195 µg/mL, partner 3.2 µg/mL | 0.0377
first compound 0.195 µg/mL, partner 4 µg/mL | 0.0274
first compound 0.195 µg/mL, partner 5 µg/mL | 0.0619
first compound 0.195 µg/mL, partner 6.4 µg/mL | 0.0264
first compound 0.195 µg/mL, partner 8 µg/mL | 0.0204
first compound 0.195 µg/mL, partner 16 µg/mL | 0.0103
first compound 0.39 µg/mL, partner 1.25 µg/mL | 0.086
first compound 0.39 µg/mL, partner 1.6 µg/mL | 0.0435
first compound 0.39 µg/mL, partner 2.5 µg/mL | 0.0309
first compound 0.39 µg/mL, partner 3.2 µg/mL | 0.0108
first compound 0.39 µg/mL, partner 5 µg/mL | 0.0219
first compound 0.39 µg/mL, partner 6.4 µg/mL | 0.0352
first compound 0.78 µg/mL, partner 1.25 µg/mL | 0.0678
first compound 0.78 µg/mL, partner 1.6 µg/mL | 0.0281
first compound 0.78 µg/mL, partner 2.5 µg/mL | 0.0242
first compound 0.78 µg/mL, partner 3.2 µg/mL | 0.0058
first compound 0.78 µg/mL, partner 5 µg/mL | 0.0235
first compound 0.78 µg/mL, partner 6.4 µg/mL | 0.0238
first compound 1.562 µg/mL, partner 0.5 µg/mL | 0.257
first compound 1.562 µg/mL, partner 1 µg/mL | 0.0875
first compound 1.562 µg/mL, partner 2 µg/mL | 0.038
first compound 3.125 µg/mL, partner 0.5 µg/mL | 0.173
first compound 3.125 µg/mL, partner 1 µg/mL | 0.0836
first compound 3.125 µg/mL, partner 2 µg/mL | 0.02
first compound 6.25 µg/mL, partner 0.5 µg/mL | 0.105
first compound 6.25 µg/mL, partner 1 µg/mL | 0.0185
first compound 6.25 µg/mL, partner 2 µg/mL | 0.0198

main component drawn
Conditions | Bliss interaction score
B. subtilis 168 [2] | -0.0638
S. aureus DSM 20231 | -0.109
S. aureus Newman | -0.331
S. pneumoniae D39V | 0.0468

C[C@H]1c2cccc(O)c2C(=O)C2=C(O)[C@]3(O)C(=O)C(C(N)=O)=C(O)[C@@H](N(C)C)[C@@H]3[C@@H](O)[C@@H]21 [Doxycycline] + CO[C@@H]1[C@@H](OC(N)=O)[C@@H](O)[C@H](Oc2ccc3c(O)c(NC(=O)c4ccc(O)c(CC=C(C)C)c4)c(=O)oc3c2C)OC1(C)C [Novobiocin]
fitness, B. subtilis 168 [1]
Conditions | first compound 0.02 µg/mL | first compound 0.04 µg/mL | first compound 0.08 µg/mL
partner 0.0125 µg/mL | 0.885 | 0.808 | 0.466
partner 0.025 µg/mL | 0.875 | 0.775 | 0.405
partner 0.05 µg/mL | 0.978 | 0.775 | –

fitness, B. subtilis 168 [1], one replicate
Conditions | partner 0.1 µg/mL | partner 0.125 µg/mL | partner 0.2 µg/mL | partner 0.25 µg/mL | partner 0.5 µg/mL
first compound 0.02 µg/mL | ≥ 1 | 0.861 | 0.979 | 0.963 | 0.623
first compound 0.04 µg/mL | 0.874 | 0.787 | 0.895 | 0.712 | 0.547
first compound 0.08 µg/mL | 0.675 | 0.341 | 0.71 | 0.103 | 0.0433

Conditions | Bliss interaction score
B. subtilis 168 [2] | 0.0575
S. aureus DSM 20231 | 0.0829
S. aureus Newman | 0.0369
S. pneumoniae D39V | 0.0928
